From US20130337564A1, “Treatment of Pluripotent Cells” (Janssen Biotech, Inc., priority 2012, published 2013)
“And” between values parts separate entries of the source, which are not always exact repeats. Equal values may be shown once.

Key:
[1] = test system: cells expressing pluripotency markers derived from human embryonic stem cells; experiment: MTS viability (toxicity) assay of cells expressing pluripotency markers; type: cell-based; parameters: Raw data (duplicate), first replicate / Average: unit not given here; conditions: for Raw data (duplicate), first replicate / Raw data (duplicate), second replicate: MTS viability assay raw reading; for Raw data (duplicate), first replicate: replicate 1; for Raw data (duplicate), second replicate: replicate 2; for Average: average of duplicate MTS raw readings; for Average of raw data (duplicate), optical density at 490 nm / % Control (percentage viability of control): MTS on day 4; for % Control (percentage viability of control): relative to Activin A + Wnt3a positive control
Procedure, shortened: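 A GSK-3B inhibitor library was screened for toxicity to pluripotency-marker-expressing cells. Compound was given in DMEM:F12 with 0.5% FCS and 100 ng/ml Activin A for two days, then replaced by medium with 2% FCS and Activin A. On day 4, MTS absorbance at 490 nm gave viability as percent of Activin A plus Wnt3a control wells.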

[2] = test system: human embryonic stem cell line H1; experiment: Dose titration secondary assay: cell number, H1; type: cell-based; conditions: positive control (Wnt3a/Activin A) normalized to 1.000
Protocol: It was important to confirm the activity of hits identified from primary screening and further analyze the range of activity by dose titration. New samples of a selective subset of primary screening hits were obtained as dry powders, solubilized to make fresh stock reagents, and diluted into secondary confirmation assays to evaluate effects on human embryonic stem cells.
Culture of two human embryonic stem cells (H1 and H9) was conducted as described in Example 1. Colonies of cells were maintained in an undifferentiated, pluripotent state on Matrigel™ ([…]) coated polystyrene plastic, using a 1:30 dilution of Matrigel™ in DMEM:F12 to coat the surface. Cells were split by enzymatic passage every four days on average. Passage was performed by exposing cell monolayers to a solution of collagenase (1 mg/ml; Sigma-Aldrich) for 10 to 60 minutes at 37° C. followed by gentle scraping with a pipette tip to recover cell clusters. Clusters were allowed to sediment by gravity, then washed to remove residual collagenase. Cell clusters were split at a 1:3 ratio for maintenance culture or a 1:1 ratio for subsequent assay. The human embryonic stem cell lines were maintained at less than passage 50 and routinely evaluated for normal karyotypic phenotype and absence of mycoplasma contamination.
Cell clusters of the H1 or H9 human embryonic stem cell lines used in the assay were evenly resuspended in culture medium and plated onto Matrigel™-coated 96-well Packard VIEWPLATES (PerkinElmer) in volumes of 100 μl/well. MEF conditioned medium supplemented with 8 ng/ml bFGF was used for initial plating and expansion. Daily feeding was conducted by aspirating spent culture medium from each well and replacing with an equal volume of fresh medium. Cultures were allowed to expand one to three days after plating prior to initiating assay. Plates were maintained at 37° C., 5% CO2 in a humidified box for the duration of assay.
A subset of hits resulting from primary screening was used for follow-up study and subsequent secondary assays. Twenty compounds available as dry powders were solubilized as 10 mM stocks in DMSO and stored dessicated at […] until use Immediately prior to assay, compound stocks were diluted 1:1000 to make 10 μM test compound in DMEM:F12 base medium (Invitrogen) supplemented with 0.5% FCS (HyClone) and 100 ng/ml Activin A (R&D Biosystems). This was further diluted two-fold in series to make a seven point dilution curve for each compound, also in DMEM:F12 base medium with 0.5% FCS and 100 ng/ml Activin A.
Assay was initiated by aspirating culture medium from cell monolayers in each well followed by three washes in PBS to remove residual growth factors and serum. Test volumes of 100 μl per well were added back containing medium with 0.5% FCS and different concentrations of inhibitor compounds with 100 ng/ml Activin A, without Wnt3a. Positive control wells contained the same base medium with 0.5% FCS and with 20 ng/ml Wnt3a (R&D Biosystems) in the absence of test compound. Negative control wells contained the same base medium with 0.5% FCS, in the absence of Activin A, Wnt3a, or test compound. Assay wells were aspirated and fed again with identical concentrations of test compound or control solutions on day 2 of assay. On days 3 and 4, all assay wells were aspirated and fed with DMEM:F12 supplemented with 2% FCS and 100 ng/ml Activin A in the absence of both test compound or Wnt3a. Parallel negative control wells were maintained on days 3 and 4 in DMEM:F12 base medium with 2% FCS.
At the end of culture, cells in 96-well plates were washed twice with PBS then fixed with 4% paraformaldehyde at room temperature for 20 minutes, washed three times more with PBS, and then permeabilized with 0.5% Triton X-100 for 20 minutes at room temperature. After fixing and permeabilizing, cells were washed again three times with PBS and then blocked with 4% chicken serum (Invitrogen) in PBS for 30 minutes at room temperature. […]

[3] = viability of cells expressing pluripotency markers, relative to control

## O=C1NC(=O)C(c2cn(CCCO)c3ncccc23)=C1c1cnccn1 [Compound 47, 3-[1-(3-Hydroxypropyl)-1H-pyrrolo[2,3-b]pyridin-3-yl]-4-pyrazin-2-yl-1H-pyrrole-2,5-dione]
[1]; Homo sapiens, Embryonic stem cell, viability of cells expressing pluripotency markers, relative to control
  viability at 10 µM: 104%
[2]; Homo sapiens, Embryonic stem cell, Conc 0.156 μM
  activity at 0.156 µM: 71.2%
[2]; Homo sapiens, Embryonic stem cell, Conc 0.313 μM
  activity at 0.313 µM: 74.2%
[2]; Homo sapiens, Embryonic stem cell, Conc 0.625 μM
  activity at 0.625 µM: 83.2%
[2]; Homo sapiens, Embryonic stem cell, Conc 1.25 μM
  activity at 1.25 µM: 101%
[2]; Homo sapiens, Embryonic stem cell, Conc 2.5 μM
  activity at 2.5 µM: 93.2%
[2]; Homo sapiens, Embryonic stem cell, Conc 5 μM
  activity at 5 µM: 110%
[2]; Homo sapiens, Embryonic stem cell, Conc 10 μM
  activity at 10 µM: 105%

## CCN1CCOCCOCCn2cc(c3ccccc32)C2=C(C(=O)NC2=O)c2cn(c3ccccc23)CC1 [Compound 103, 14-Ethyl-6,7,9,10,13,14,15,16-octahydro-12H,23H-5,26:17,22-di(metheno)dibenzo[k,q]pyrrolo[3,4-n][1,4,7,10,19]dioxatriacyclohenicosine-23,25(24H)-dione]
[1]
  Raw data (duplicate), first replicate: 0.141
  Raw data (duplicate), second replicate: 0.162
  Average: 0.151
[1]; cmpd conc 2.5 μM
  Average of raw data (duplicate), optical density at 490 nm: 0.4737
  % Control (percentage viability of control): 51.4%
[1]; cmpd conc 5 μM
  Average of raw data (duplicate), optical density at 490 nm: 0.2618
  % Control (percentage viability of control): 19.7%
[1]; cmpd conc 10 μM
  Average of raw data (duplicate), optical density at 490 nm: 0.1339
  % Control (percentage viability of control): 0.5%
[1]; [3]
  % Control: 4.3%
[2]; Conc 0.156 μM
  Cell number: 1.027
[2]; Conc 0.313 μM
  Cell number: 1.028
[2]; Conc 0.625 μM
  Cell number: 0.921
[2]; Conc 1.25 μM
  Cell number: 0.897
[2]; Conc 2.5 μM
  Cell number: 0.566
[2]; Conc 5 μM
  Cell number: 0.034
[2]; Conc 10 μM
  Cell number: 0.001

## CN1CCN(C)CCn2cc(c3ccccc32)C2=C(C(=O)NC2=O)c2cn(c3ccccc23)CC1 [Compound 111, 8,11-Dimethyl-6,7,8,9,10,11,12,13-octahydro-20H-5,23:14,19-di(metheno)dibenzo[k,q]pyrrolo[3,4-n][1,4,7,10]tetraazacyclooctadecine-20,22(21H)-dione]
[1]
  Raw data (duplicate), first replicate: 0.821
  Raw data (duplicate), second replicate: 0.841
  Average: 0.831
[1]; cmpd conc 2.5 μM
  Average of raw data (duplicate), optical density at 490 nm: 0.8169
  % Control (percentage viability of control): 102.9%
[1]; cmpd conc 5 μM
  Average of raw data (duplicate), optical density at 490 nm: 0.7718
  % Control (percentage viability of control): 96.1%
[1]; cmpd conc 10 μM
  Average of raw data (duplicate), optical density at 490 nm: 0.6709
  % Control (percentage viability of control): 81.0%
[1]; [3]
  % Control: 108.0%
[2]; Conc 0.156 μM
  Cell number: 0.659
[2]; Conc 0.313 μM
  Cell number: 0.785
[2]; Conc 0.625 μM
  Cell number: 0.801
[2]; Conc 1.25 μM
  Cell number: 0.914
[2]; Conc 2.5 μM
  Cell number: 1.031
[2]; Conc 5 μM
  Cell number: 1.128
[2]; Conc 10 μM
  Cell number: 0.412

## CN1CCOCCOCCN(C)CCn2cc(c3ccccc32)C2=C(C(=O)NC2=O)c2cn(c3ccccc23)CC1 [Compound 112, 12,21-Dimethyl-11,12,13,14,16,17,20,21,22,23-decahydro-1H,10H,19H-9,4:24,29-di(metheno)dibenzo[k,q]pyrrolo[3,4-n][1,4,7,10,19,22]dioxatetraazacyclotetracosine-1,3(2H)-dione]
[1]
  Raw data (duplicate), first replicate: 0.981
  Raw data (duplicate), second replicate: 1.056
  Average: 1.018
[1]; cmpd conc 2.5 μM
  Average of raw data (duplicate), optical density at 490 nm: 0.8103
  % Control (percentage viability of control): 101.9%
[1]; cmpd conc 5 μM
  Average of raw data (duplicate), optical density at 490 nm: 0.1283
[1]; cmpd conc 10 μM
  Average of raw data (duplicate), optical density at 490 nm: 0.1283
[1]; [3]
  % Control: 145.3%
[2]; Conc 0.156 μM
  Cell number: 0.912
[2]; Conc 0.313 μM
  Cell number: 0.959
[2]; Conc 0.625 μM
  Cell number: 1.111
[2]; Conc 1.25 μM
  Cell number: 1.200
[2]; Conc 2.5 μM
  Cell number: 1.005
[2]; Conc 5 μM
  Cell number: 0.908
[2]; Conc 10 μM
  Cell number: 0.996

## O=C1NC(=O)C2=C1c1cn(c3ccccc13)CCOCCOCCN(Cc1cccs1)CCn1cc2c2ccccc21 [Compound 133, 14-(2-Thienylmethyl)-6,7,9,10,13,14,15,16-octahydro-12H,23H-5,26:17,22-di(metheno)dibenzo[k,q]pyrrolo[3,4-n][1,4,7,10,19]dioxatriazacyclohenicosine-23,25(24H)-dione]
[1]
  Raw data (duplicate), first replicate: 0.823
  Raw data (duplicate), second replicate: 0.634
  Average: 0.728
[1]; cmpd conc 2.5 μM
  Average of raw data (duplicate), optical density at 490 nm: 0.7939
  % Control (percentage viability of control): 92.8%
[1]; cmpd conc 5 μM
  Average of raw data (duplicate), optical density at 490 nm: 0.6661
  % Control (percentage viability of control): 75.0%
[1]; cmpd conc 10 μM
  Average of raw data (duplicate), optical density at 490 nm: 0.3010
  % Control (percentage viability of control): 24.1%
[1]; [3]
  % Control: 98.1%
[2]; Conc 0.156 μM
  Cell number: 0.890
[2]; Conc 0.313 μM
  Cell number: 0.888
[2]; Conc 0.625 μM
  Cell number: 1.106
[2]; Conc 1.25 μM
  Cell number: 1.124
[2]; Conc 2.5 μM
  Cell number: 0.592
[2]; Conc 5 μM
  Cell number: 0.262
[2]; Conc 10 μM
  Cell number: 0.096

## O=C1NC(=O)C2=C1c1cn(c3ccccc13)CCOCCOCCN(Cc1cccc3ccccc13)CCn1cc2c2ccccc21 [Compound 136, 14-(Naphthalen-1-ylmethyl)-6,7,9,10,13,14,15,16-octahydro-12H,23H-5,26:17,22-di(metheno)dibenzo[k,q]pyrrolo[3,4-n][1,4,7,10,19]dioxatriazacyclohenicosine-23,25(24H)-dione]
[1]
  Raw data (duplicate), first replicate: 0.699 and 0.697
  Raw data (duplicate), second replicate: 0.679 and 0.695
  Average: 0.689 and 0.696
[1]; cmpd conc 2.5 μM
  Average of raw data (duplicate), optical density at 490 nm: 0.8432
  % Control (percentage viability of control): 99.6%
[1]; cmpd conc 5 μM
  Average of raw data (duplicate), optical density at 490 nm: 0.7935
  % Control (percentage viability of control): 92.7%
[1]; cmpd conc 10 μM
  Average of raw data (duplicate), optical density at 490 nm: 0.8425
  % Control (percentage viability of control): 99.5%
[1]; [3]
  % Control: 86.3% and 87.3%
[2]; Conc 0.156 μM
  Cell number: 0.742
[2]; Conc 0.313 μM
  Cell number: 0.868
[2]; Conc 0.625 μM
  Cell number: 0.910
[2]; Conc 1.25 μM
  Cell number: 0.850
[2]; Conc 2.5 μM
  Cell number: 0.428
[2]; Conc 5 μM
  Cell number: 0.173
[2]; Conc 10 μM
  Cell number: 0.058
